Article PMC5761851, “Application of a phenotypic drug discovery strategy to identify biological and chemical starting points for inhibition of TSLP production in lung epithelial cells” (PLoS ONE, 2018)

Legend:
Assay in all cases: kinase selectivity panel
Format in all cases: biochemical
Fgr = target: T1, Fgr (Homo sapiens, UniProt P09769); settings: read-out: percentage of control activity (POC), Fgr
T1 construct: purchased Eurofins Pharma Discovery Services (KinaseProfiler; Cerep BioPrint panel)
How it was run: (§1)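 Tested at 10 μM in duplicate within a panel of 125 representative kinases. For selected activities, IC50 values were then determined from 9 concentrations, each run in duplicate.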

Tie2 = target: T2, Tie2 (Homo sapiens, UniProt Q02763); settings: for remaining activity at 10 µM: read-out: percentage of control activity (POC), Tie2
T2 construct: purchased Eurofins Pharma Discovery Services (KinaseProfiler; Cerep BioPrint panel)
How it was run: as §1

DDR2 = target: T3, DDR2 (Homo sapiens, UniProt Q16832); settings: for remaining activity at 10 µM: read-out: percentage of control activity (POC), DDR2
T3 construct: purchased Eurofins Pharma Discovery Services (KinaseProfiler; Cerep BioPrint panel)
T3 sequence (Q16832 22-855): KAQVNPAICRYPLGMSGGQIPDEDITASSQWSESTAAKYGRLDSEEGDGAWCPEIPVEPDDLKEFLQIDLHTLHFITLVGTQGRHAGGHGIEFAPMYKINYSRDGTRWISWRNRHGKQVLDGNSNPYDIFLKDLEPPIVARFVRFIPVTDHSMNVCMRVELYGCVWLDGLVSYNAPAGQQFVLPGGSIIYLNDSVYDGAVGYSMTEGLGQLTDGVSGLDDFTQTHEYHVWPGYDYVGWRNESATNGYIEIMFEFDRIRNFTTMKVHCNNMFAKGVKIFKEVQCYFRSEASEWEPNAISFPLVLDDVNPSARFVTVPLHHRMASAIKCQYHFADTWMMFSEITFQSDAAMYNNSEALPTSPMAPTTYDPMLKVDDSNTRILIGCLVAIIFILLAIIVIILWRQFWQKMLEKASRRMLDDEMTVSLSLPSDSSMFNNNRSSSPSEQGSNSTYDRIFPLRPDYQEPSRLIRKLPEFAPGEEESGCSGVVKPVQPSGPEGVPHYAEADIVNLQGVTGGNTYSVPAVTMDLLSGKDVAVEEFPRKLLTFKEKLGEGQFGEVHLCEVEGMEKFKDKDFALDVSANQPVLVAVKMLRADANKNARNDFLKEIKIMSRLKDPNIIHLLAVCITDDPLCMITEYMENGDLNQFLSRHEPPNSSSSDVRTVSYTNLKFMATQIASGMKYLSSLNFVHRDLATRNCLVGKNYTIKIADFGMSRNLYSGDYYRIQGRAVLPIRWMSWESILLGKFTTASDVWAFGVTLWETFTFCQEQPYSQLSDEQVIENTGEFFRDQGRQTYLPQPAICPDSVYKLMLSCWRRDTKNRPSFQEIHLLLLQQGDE
How it was run: as §1

Pyk2 = target: T4, Pyk2 (Homo sapiens, UniProt Q14289); settings: read-out: percentage of control activity (POC), Pyk2
T4 construct: purchased Eurofins Pharma Discovery Services (KinaseProfiler; Cerep BioPrint panel)
How it was run: as §1

CK1γ1 = target: T5, CK1γ1 (Homo sapiens, UniProt Q9HCP0); settings: read-out: percentage of control activity (POC), CK1γ1
T5 construct: purchased Eurofins Pharma Discovery Services (KinaseProfiler; Cerep BioPrint panel)
How it was run: as §1

PKG1α = target: T6, PKG1α (Homo sapiens, UniProt Q13976); settings: read-out: percentage of control activity (POC), PKG1α
T6 construct: purchased Eurofins Pharma Discovery Services (KinaseProfiler; Cerep BioPrint panel)
T6 sequence (Q13976 1-671): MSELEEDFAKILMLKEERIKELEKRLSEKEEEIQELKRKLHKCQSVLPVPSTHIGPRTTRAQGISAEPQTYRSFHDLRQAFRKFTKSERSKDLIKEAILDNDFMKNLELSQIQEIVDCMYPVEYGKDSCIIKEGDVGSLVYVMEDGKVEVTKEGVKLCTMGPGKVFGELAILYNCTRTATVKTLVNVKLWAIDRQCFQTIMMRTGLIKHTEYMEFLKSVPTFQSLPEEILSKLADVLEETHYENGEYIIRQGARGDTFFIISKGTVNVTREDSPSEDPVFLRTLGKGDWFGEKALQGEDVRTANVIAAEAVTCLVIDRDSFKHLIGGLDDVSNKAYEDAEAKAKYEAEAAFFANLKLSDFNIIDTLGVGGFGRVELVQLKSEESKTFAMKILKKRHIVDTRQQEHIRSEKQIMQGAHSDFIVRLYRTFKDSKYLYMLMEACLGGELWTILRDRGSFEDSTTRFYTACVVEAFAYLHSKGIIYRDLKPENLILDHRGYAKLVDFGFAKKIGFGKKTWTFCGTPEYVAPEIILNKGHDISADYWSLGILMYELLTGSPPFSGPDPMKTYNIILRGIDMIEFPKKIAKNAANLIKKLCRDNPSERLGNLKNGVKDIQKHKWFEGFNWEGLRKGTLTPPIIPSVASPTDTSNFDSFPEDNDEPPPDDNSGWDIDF
How it was run: as §1

PI3K (p110d/p85a) = target: T7, PI3K (p110d/p85a) (Homo sapiens, UniProt O00329); settings: for remaining activity at 10 µM: read-out: percentage of control activity (POC), PI3K (p110d/p85a)
T7 construct: Eurofins Pharma Discovery Services (contract assay service)
How it was run: as §1

DRAK1 = target: T8, DRAK1 (Homo sapiens, UniProt Q9UEE5); settings: read-out: percentage of control activity (POC), DRAK1
T8 construct: purchased Eurofins Pharma Discovery Services (KinaseProfiler; Cerep BioPrint panel)
T8 sequence (Q9UEE5 1-414): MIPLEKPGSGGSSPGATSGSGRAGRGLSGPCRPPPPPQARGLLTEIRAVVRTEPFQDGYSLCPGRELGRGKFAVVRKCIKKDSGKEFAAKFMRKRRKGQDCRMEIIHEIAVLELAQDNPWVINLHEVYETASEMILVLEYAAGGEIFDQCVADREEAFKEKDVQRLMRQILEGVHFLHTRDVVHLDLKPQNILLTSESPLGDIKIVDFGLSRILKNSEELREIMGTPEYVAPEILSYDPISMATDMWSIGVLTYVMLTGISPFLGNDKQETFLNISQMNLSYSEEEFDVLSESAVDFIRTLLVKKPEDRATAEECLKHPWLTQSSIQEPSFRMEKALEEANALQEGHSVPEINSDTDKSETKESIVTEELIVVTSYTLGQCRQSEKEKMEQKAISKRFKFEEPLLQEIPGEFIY
How it was run: as §1

JAK2 = target: T9, JAK2 (Homo sapiens, UniProt O60674); settings: read-out: percentage of control activity (POC), JAK2
T9 construct: purchased Eurofins Pharma Discovery Services (KinaseProfiler; Cerep BioPrint panel)
How it was run: as §1

T4 sequence (Q14289 whole entry): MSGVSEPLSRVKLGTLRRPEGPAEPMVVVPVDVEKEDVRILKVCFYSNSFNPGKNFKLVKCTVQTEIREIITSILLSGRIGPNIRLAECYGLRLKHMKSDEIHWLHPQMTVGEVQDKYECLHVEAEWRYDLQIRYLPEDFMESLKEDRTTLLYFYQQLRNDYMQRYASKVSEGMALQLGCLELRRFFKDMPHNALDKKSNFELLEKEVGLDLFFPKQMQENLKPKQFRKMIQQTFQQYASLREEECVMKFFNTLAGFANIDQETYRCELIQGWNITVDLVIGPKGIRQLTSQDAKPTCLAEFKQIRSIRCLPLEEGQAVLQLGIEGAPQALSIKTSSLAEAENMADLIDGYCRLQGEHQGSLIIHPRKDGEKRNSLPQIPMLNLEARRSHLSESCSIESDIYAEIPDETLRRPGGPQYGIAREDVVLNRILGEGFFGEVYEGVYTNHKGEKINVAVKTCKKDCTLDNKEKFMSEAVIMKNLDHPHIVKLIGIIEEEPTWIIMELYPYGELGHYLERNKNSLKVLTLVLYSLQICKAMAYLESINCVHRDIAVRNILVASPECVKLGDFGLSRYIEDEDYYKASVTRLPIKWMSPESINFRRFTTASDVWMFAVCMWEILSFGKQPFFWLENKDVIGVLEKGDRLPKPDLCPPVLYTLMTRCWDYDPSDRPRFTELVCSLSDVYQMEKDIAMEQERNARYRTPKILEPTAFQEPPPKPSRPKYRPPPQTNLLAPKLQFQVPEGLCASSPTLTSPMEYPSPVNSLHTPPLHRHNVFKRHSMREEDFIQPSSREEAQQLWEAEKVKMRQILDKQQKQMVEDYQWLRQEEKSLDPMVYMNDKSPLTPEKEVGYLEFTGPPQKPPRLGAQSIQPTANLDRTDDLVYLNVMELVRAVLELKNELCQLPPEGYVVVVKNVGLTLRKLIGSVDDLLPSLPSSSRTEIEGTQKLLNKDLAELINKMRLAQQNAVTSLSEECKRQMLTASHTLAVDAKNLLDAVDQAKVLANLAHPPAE
T7 sequence (O00329 whole entry): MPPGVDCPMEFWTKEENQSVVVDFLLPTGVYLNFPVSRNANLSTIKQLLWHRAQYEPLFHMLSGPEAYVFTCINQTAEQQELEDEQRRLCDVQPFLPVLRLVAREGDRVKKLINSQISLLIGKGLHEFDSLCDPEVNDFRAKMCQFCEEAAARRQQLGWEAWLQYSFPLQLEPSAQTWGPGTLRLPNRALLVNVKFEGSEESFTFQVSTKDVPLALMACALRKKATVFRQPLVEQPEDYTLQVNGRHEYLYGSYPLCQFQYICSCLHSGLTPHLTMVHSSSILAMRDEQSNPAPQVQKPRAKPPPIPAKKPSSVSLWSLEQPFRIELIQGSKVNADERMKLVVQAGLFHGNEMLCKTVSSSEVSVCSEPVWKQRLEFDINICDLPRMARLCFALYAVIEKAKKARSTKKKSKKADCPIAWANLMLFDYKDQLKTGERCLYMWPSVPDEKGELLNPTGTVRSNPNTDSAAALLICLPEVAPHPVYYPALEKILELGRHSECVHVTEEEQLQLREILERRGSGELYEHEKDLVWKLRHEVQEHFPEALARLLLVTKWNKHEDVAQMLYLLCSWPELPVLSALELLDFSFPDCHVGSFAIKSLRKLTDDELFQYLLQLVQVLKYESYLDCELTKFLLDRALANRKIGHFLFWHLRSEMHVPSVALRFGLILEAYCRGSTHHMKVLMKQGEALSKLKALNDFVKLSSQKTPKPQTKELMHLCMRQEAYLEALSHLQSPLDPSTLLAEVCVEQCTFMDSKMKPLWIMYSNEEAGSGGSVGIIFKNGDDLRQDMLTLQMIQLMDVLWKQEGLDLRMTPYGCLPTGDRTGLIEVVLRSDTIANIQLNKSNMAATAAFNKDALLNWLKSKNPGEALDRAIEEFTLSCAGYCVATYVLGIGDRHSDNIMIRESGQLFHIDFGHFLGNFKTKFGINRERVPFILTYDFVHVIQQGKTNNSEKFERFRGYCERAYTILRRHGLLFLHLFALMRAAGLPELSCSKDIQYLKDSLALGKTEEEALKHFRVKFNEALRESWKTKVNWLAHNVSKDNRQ
T7 sequence (P27986 whole entry partner): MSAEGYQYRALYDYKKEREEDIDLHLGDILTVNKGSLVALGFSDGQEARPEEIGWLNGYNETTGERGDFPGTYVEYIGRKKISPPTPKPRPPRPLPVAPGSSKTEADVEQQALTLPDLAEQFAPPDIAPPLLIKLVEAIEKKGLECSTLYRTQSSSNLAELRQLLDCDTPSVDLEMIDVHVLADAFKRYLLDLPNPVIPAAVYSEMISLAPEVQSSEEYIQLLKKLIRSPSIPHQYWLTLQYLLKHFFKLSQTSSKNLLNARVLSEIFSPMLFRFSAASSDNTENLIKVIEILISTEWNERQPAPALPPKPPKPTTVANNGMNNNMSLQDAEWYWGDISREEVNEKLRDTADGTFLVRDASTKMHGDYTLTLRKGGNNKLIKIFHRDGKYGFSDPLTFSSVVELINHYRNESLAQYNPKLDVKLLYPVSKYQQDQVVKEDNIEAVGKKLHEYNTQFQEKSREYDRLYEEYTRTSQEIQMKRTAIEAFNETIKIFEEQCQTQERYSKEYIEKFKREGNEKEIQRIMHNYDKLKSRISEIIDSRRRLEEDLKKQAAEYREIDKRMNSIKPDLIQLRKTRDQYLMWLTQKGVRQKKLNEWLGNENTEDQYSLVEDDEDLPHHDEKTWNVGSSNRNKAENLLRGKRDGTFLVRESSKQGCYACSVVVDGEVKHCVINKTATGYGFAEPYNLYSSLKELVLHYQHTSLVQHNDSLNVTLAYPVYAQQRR
T1 sequence (P09769 whole entry): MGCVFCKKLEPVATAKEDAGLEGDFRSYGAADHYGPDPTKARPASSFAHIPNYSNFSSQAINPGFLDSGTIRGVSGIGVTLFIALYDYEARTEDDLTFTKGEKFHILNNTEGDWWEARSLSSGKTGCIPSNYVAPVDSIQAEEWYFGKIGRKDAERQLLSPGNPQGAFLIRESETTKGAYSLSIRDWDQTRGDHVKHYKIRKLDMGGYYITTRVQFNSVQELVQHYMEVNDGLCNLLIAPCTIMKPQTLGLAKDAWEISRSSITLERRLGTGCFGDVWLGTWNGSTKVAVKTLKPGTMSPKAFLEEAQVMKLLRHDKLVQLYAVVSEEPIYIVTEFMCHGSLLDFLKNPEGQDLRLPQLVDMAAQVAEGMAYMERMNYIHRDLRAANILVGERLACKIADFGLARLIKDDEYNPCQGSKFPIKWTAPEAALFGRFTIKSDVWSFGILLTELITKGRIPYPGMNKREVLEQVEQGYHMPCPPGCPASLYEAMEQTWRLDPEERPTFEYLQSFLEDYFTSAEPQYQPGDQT
T5 sequence (Q9HCP0 whole entry): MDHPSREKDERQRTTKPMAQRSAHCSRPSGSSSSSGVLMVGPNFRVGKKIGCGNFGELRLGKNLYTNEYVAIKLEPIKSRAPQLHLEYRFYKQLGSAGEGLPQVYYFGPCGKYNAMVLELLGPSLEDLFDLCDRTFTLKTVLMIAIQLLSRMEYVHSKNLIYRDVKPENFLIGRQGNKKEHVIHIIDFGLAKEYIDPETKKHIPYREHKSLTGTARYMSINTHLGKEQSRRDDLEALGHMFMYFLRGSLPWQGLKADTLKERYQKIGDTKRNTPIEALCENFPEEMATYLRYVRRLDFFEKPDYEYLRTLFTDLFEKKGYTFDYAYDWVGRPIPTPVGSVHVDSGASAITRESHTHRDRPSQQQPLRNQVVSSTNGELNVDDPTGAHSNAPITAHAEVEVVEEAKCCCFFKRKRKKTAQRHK
T2 sequence (Q02763 23-1124): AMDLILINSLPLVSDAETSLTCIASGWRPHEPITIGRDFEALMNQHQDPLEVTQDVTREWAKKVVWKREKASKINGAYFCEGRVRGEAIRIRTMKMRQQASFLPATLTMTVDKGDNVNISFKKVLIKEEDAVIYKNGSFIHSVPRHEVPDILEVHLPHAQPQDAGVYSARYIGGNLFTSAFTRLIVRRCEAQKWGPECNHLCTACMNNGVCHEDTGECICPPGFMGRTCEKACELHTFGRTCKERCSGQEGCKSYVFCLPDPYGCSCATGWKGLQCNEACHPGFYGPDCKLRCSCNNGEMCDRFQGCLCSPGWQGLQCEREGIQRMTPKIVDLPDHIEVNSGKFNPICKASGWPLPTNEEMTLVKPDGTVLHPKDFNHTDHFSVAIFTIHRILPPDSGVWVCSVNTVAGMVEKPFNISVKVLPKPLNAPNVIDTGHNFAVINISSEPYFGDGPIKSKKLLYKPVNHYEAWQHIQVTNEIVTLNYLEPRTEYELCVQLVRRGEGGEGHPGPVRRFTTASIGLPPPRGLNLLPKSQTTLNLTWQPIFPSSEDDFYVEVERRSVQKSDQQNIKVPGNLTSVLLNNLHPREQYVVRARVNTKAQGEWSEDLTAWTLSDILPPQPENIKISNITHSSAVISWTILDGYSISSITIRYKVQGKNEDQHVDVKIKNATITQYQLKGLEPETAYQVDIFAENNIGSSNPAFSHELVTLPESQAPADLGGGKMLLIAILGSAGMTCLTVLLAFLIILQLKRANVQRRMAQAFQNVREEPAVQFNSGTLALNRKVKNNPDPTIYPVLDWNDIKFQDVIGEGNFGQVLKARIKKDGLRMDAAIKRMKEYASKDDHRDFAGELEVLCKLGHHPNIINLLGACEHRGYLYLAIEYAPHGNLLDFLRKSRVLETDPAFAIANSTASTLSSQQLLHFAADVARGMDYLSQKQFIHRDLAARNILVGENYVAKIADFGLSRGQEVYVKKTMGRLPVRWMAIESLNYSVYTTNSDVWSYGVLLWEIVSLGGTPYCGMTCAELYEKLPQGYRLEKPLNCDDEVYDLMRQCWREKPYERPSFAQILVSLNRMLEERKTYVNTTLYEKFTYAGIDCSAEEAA

Row | Structure (SMILES) | remaining activity at 10 µM (Fgr) | remaining activity at 10 µM (Tie2) | remaining activity at 10 µM (DDR2) | remaining activity at 10 µM (Pyk2) | remaining activity at 10 µM (CK1γ1) | remaining activity at 10 µM (PKG1α) | remaining activity at 10 µM (PI3K (p110d/p85a); 10 μM) | remaining activity at 10 µM (DRAK1) | remaining activity at 10 µM (JAK2) | inhibition at 10 µM (Tie2) | inhibition at 10 µM (DDR2) | inhibition at 10 µM (PI3K (p110d/p85a); 10 μM, read-out: inhibition of PI3K (p110δ/p85α)) | IC50 (PI3K (p110d/p85a); biochemical dose response, duplicate, read-out: Inhibition of indicated activity (IC50, μM): PI3K (p110δ/p85α))
1 | CC(C)(C)N1CCC(c2cc(-c3ccc(F)cc3Cl)c3cc[n+]([O-])c(-c4c(Cl)cccc4Cl)c3n2)CC1 [compound 2] | 99% | 79% | 94% | 99% | 101% | 108% | 93% | 99% | 105% |  |  |  | 
2 | Cn1cc(-c2cccc(-c3nc(C(=O)NC4C5CC6CC4CC(O)(C6)C5)c(N)nc3N)c2)cn1 (centres unmarked) [compound 4] | 67% | 76% | 47% | 86% | 89% | 97% | 21% | 89% | 88% |  | 53% | 79% | 0.233 µM
3 | CS(=O)(=O)N1CCN(c2ccc(Nc3ncc(C(N)=O)c(NC4CC4)n3)cc2)CC1 [compound 5] | 5% | 42% | 28% | 4% | 25% | 66% | 90% | 1% | -3% |  |  |  | 

Now from value to molecule, other results behind:

Row | remaining activity at 10 µM (Fgr) | remaining activity at 10 µM (Tie2) | remaining activity at 10 µM (DDR2) | remaining activity at 10 µM (Pyk2) | remaining activity at 10 µM (CK1γ1) | remaining activity at 10 µM (PKG1α) | remaining activity at 10 µM (PI3K (p110d/p85a); 10 μM) | remaining activity at 10 µM (DRAK1) | remaining activity at 10 µM (JAK2) | inhibition at 10 µM (Tie2) | Structure (SMILES) | inhibition at 10 µM (DDR2) | inhibition at 10 µM (PI3K (p110d/p85a); 10 μM, read-out: inhibition of PI3K (p110δ/p85α)) | IC50 (PI3K (p110d/p85a); biochemical dose response, duplicate, read-out: Inhibition of indicated activity (IC50, μM): PI3K (p110δ/p85α))
4 | 93% | 96% | 71% | 99% | 98% | 102% | 90% | 98% | 108% |  | Cc1ccc(C(=O)NCC2CC2)cc1-c1ccc2c(c1)NC(=O)C21CCCC1 [compound 3] |  |  | 
5 | 98% | 27% | 3% | 87% | 98% | 105% | 90% | 144% | 104% | 83% | COc1c(NC(=O)c2ccc(C)c(-c3nnc4c(NCC(C)(C)C)nccn34)c2)cc(C(C)(C)C)cc1NS(C)(=O)=O [compound 7, reference compound] | 97% |  | 
